Results: patent publication US20220133688A1, “MACROCYCLIC LACTONE ANTHELMINTICS AGAINST NEMATODES” (Bayer Animal Health GmbH, priority 2019, published 2022)
“And” between values parts separate entries of the source, which are not always exact repeats. Identical values can stand only once. Like-named read-outs stand apart in the source and are kept apart here.

Columns and labels:
[1] = test system: D. immitis Mf, Yazoo-2013 strain (resistant); test: Cell attachment assay (canine PMN or PBMC attachment to Mf), Yazoo-2013 isolate; type: cell-based, Dirofilaria immitis
[2] = test system: D. immitis Mf, Metairie-2014 strain (resistant); test: Cell attachment assay (canine PMN or PBMC attachment to Mf), Metairie-2014 isolate; type: cell-based, Dirofilaria immitis; conditions: for lowest drug concentration at which a statistically significant increase (p = <0.05) in cell attachment was observed compared to the no-drug control: 2-way ANOVA

SMILES	Percentage (±SEM) of Mf with cells attached [1]	drug concentration causing a significant increase in cell attachment [1] [nM]	lowest drug concentration at which a statistically significant increase (p = <0.05) in cell attachment was observed compared to the no-drug control [1] [nM]	Percentage (±SEM) of Mf with cells attached [2]	drug concentration required for a significant increase in cell attachment [2] [µM]	increase in attachment of PBMCs at any concentration [2]	Percentage (±SEM) of Mf with cells attached ([1]; PBMC, 1 μM drug, Yazoo-2013 Mf) [%]	lowest drug concentration at which a statistically significant increase (p = <0.05) in cell attachment was observed compared to the no-drug control ([1]; PBMC, 40 h, Yazoo-2013 Mf, 2-way ANOVA) [nM]	Percentage (±SEM) of Mf with cells attached ([1]; PMN, 1 μM drug, Yazoo-2013 Mf) [%]	lowest drug concentration at which a statistically significant increase (p = <0.05) in cell attachment was observed compared to the no-drug control ([1]; PMN, 24 h, Yazoo-2013 Mf, 2-way ANOVA) [nM]	drug concentration causing a significant increase in cell attachment ([1]; PMNs and PBMCs, Yazoo-2013 Mf) [nM]	Percentage (±SEM) of Mf with cells attached ([2]; PBMC, 1 μM drug, Metairie-2014 Mf) [%]	lowest drug concentration at which a statistically significant increase (p = <0.05) in cell attachment was observed compared to the no-drug control ([2]; PBMC, 40 h, Metairie-2014 Mf) [nM]	Percentage (±SEM) of Mf with cells attached ([2]; PMN, 1 μM drug, Metairie-2014 Mf) [%]	lowest drug concentration at which a statistically significant increase (p = <0.05) in cell attachment was observed compared to the no-drug control ([2]; PMN, 24 h, Metairie-2014 Mf) [nM]
CC[C@H](C)[C@H]1O[C@]2(CC[C@@H]1C)C[C@@H]1C[C@@H](C/C=C(\C)[C@@H](O[C@H]3C[C@H](OC)[C@@H](O[C@H]4C[C@H](OC)[C@@H](O)[C@H](C)O4)[C@H](C)O3)[C@@H](C)/C=C/C=C3\CO[C@@H]4[C@H](O)C(C)=C[C@@H](C(=O)O1)[C@]34O)O2 [IVM, ivermectin]	25 ± 5% and 18 ± 4%	100 to 300	100	13% and 10% and 13 ± 3% and 10 ± 2%	≥ 1	no significant increase	–	–	–	–	–	–	–	–	–
CO/N=C1\C[C@]2(C[C@@H]3C[C@@H](C/C=C(\C)C[C@@H](C)/C=C/C=C4\CO[C@@H]5[C@H](O)C(C)=C[C@@H](C(=O)O3)[C@]45O)O2)O[C@H](/C(C)=C/C(C)C)[C@H]1C [MOX, moxidectin]	–	–	–	–	–	–	19 ± 3	10	28 ± 5	3	3 to 10	49 ± 8	1	42 ± 6	10
